Key:
Mus musculus [1] = test: In vivo percentage inhibition against casting induced tibialis anterior mass loss in mouse at a dosage of 30 ug/kg/day; assay type: functional
[2] = target: Corticotropin-releasing factor receptor 2 (Mus musculus) (UniProt Q60748); test: In vitro agonistic activity against mouse corticotropin releasing factor 2 receptor; assay type: functional
[3] = target: T1, Corticotropin-releasing factor receptor 1 (Mus musculus) (UniProt P35347); test: In vitro agonistic activity against mouse corticotropin releasing factor 1 receptor; assay type: functional
T1 sequence (whole entry): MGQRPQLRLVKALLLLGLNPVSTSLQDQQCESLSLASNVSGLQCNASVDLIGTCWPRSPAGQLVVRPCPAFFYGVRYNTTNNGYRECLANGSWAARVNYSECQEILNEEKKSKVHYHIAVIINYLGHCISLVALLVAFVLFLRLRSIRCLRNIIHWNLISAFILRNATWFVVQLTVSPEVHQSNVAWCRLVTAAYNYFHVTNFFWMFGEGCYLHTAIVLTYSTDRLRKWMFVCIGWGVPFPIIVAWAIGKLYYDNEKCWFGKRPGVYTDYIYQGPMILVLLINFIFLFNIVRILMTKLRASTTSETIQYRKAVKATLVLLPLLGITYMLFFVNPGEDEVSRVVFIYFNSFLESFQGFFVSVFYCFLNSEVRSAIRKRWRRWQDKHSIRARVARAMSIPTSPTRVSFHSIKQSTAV

Mus musculus [4] = test: In vivo percentage inhibition against casting induced tibialis anterior mass loss in mouse at a dosage of 100 ug/kg/day; assay type: functional
Mus musculus [5] = species: Mus musculus; test: Selectivity ratio of EC50s for mouse corticotropin releasing factor receptors 1 and 2
Mus musculus [6] = test: In vivo percentage inhibition against casting induced tibialis anterior mass loss in mouse at a dosage of 10 ug/kg/day; assay type: functional
[7] = target: Corticotropin-releasing factor receptor 2 (Mus musculus, UniProt Q60748); test: In vitro effective concentration for mouse corticotropin releasing factor 2 receptor
[8] = target: T2, Corticotropin-releasing factor receptor 1 (Mus musculus, UniProt P35347); test: In vitro effective concentration for mouse corticotropin releasing factor 1 receptor
T2 sequence (P35347 whole entry): T1 sequence (whole entry)

Sequence of Corticotropin-releasing factor receptor 2 (Q60748 whole entry): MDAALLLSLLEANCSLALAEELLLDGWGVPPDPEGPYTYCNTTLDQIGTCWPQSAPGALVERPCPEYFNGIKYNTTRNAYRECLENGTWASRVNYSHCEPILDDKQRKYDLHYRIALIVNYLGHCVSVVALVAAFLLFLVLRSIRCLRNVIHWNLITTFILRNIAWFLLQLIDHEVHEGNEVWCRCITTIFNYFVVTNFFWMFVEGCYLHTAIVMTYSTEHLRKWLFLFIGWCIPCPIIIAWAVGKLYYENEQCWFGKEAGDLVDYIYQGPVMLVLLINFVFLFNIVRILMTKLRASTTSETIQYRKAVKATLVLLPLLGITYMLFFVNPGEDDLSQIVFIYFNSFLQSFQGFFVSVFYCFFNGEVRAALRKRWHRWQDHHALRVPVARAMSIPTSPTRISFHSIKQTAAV
Sequence of Corticotropin-releasing factor receptor 2 (Mus musculus) (Q60748 whole entry): as above

Structure (SMILES)	Emax [2] [%]	Emax [3] [%]	Selectivity (Mus musculus [5])	EC50 [7] [nM]	EC50 [8] [nM]	inhibition in vivo at 0.03 mg/kg/day (Mus musculus [1]) [%]	inhibition in vivo at 0.1 mg/kg/day (Mus musculus [4]) [%]	inhibition in vivo at 0.01 mg/kg/day (Mus musculus [6]) [%]
CC[C@H](C)[C@H](NC(=O)[C@@H](NC(=O)[C@H](CC(=O)O)NC(=O)[C@H](CC(C)C)NC(=O)[C@H](CC(C)C)NC(=O)[C@H](CC(C)C)NC(=O)[C@H](CCCN=C(N)N)NC(=O)[C@H](CC(N)=O)NC(=O)[C@H](CC(N)=O)NC(=O)[C@H](C)NC(=O)[C@H](C)NC(=O)[C@H](CCC(N)=O)NC(=O)[C@H](CCC(N)=O)NC(=O)[C@H](CCCCN)NC(=O)[C@H](CCC(=O)O)NC(=O)[C@H](CCCCN)NC(=O)[C@H](CCC(=O)O)NC(=O)[C@H](CCC(N)=O)NC(=O)[C@H](CCCCN)NC(=O)[C@H](CCC(=O)O)NC(=O)[C@@H](NC(=O)[C@H](CCC(=O)O)NC(=O)[C@@H](NC(=O)[C@H](CCSC)NC(=O)[C@H](CCCCN)NC(=O)[C@H](CCCN=C(N)N)NC(=O)[C@H](CC(C)C)NC(=O)[C@H](CC(C)C)NC(=O)[C@H](Cc1ccccc1)NC(=O)[C@H](CC(C)C)NC(=O)[C@@H]1CCCN1C(=O)[C@H](CC(C)C)NC(=O)[C@H](CC(=O)O)NC(=O)[C@@H](NC(=O)[C@H](CO)NC(=O)[C@@H](NC(=O)[C@@H]1CCCN1C(=O)[C@@H]1CCCN1C(=O)CNC(=O)[C@@H]1CCC(=O)N1)[C@@H](C)CC)[C@@H](C)CC)[C@@H](C)CC)[C@@H](C)CC)[C@@H](C)O)C(=O)O	88	93	10	10	103	–	–	–
CC[C@H](C)[C@H](NC(=O)[C@@H](NC(=O)[C@H](CC(=O)O)NC(=O)[C@H](CC(C)C)NC(=O)[C@H](CC(C)C)NC(=O)[C@H](CC(C)C)NC(=O)[C@H](CCCN=C(N)N)NC(=O)[C@H](CC(N)=O)NC(=O)[C@H](CC(N)=O)NC(=O)[C@H](C)NC(=O)[C@H](C)NC(=O)[C@H](CCC(N)=O)NC(=O)[C@H](CCC(N)=O)NC(=O)[C@H](CCCCN)NC(=O)[C@H](CCC(=O)O)NC(=O)[C@H](CCCCN)NC(=O)[C@H](CCC(=O)O)NC(=O)[C@H](CCC(N)=O)NC(=O)[C@H](CCCCN)NC(=O)[C@H](CCC(=O)O)NC(=O)[C@@H](NC(=O)[C@H](CCC(=O)O)NC(=O)[C@@H](NC(=O)[C@H](CCSC)NC(=O)[C@H](CCCCN)NC(=O)[C@H](CCCN=C(N)N)NC(=O)[C@H](CC(C)C)NC(=O)[C@H](CC(C)C)NC(=O)[C@H](Cc1ccccc1)NC(=O)[C@H](Cc1ccccc1)NC(=O)[C@@H]1CCCN1C(=O)[C@H](CC(C)C)NC(=O)[C@H](CC(=O)O)NC(=O)[C@@H](NC(=O)[C@H](CO)NC(=O)[C@@H](NC(=O)[C@@H]1CCCN1C(=O)[C@@H]1CCCN1C(=O)CNC(=O)[C@@H]1CCC(=O)N1)[C@@H](C)CC)[C@@H](C)CC)[C@@H](C)CC)[C@@H](C)CC)[C@@H](C)O)C(=O)O	92	81	16	3	48.1	–	–	–
CC[C@H](C)[C@H](NC(=O)[C@@H](NC(=O)[C@H](CC(=O)O)NC(=O)[C@H](CC(C)C)NC(=O)[C@H](CC(C)C)NC(=O)[C@H](CC(C)C)NC(=O)[C@H](CCCN=C(N)N)NC(=O)[C@H](CC(N)=O)NC(=O)[C@H](CC(N)=O)NC(=O)[C@H](C)NC(=O)[C@H](C)NC(=O)[C@H](CCC(N)=O)NC(=O)[C@H](CCC(N)=O)NC(=O)[C@H](CCCCN)NC(=O)[C@H](CCC(=O)O)NC(=O)[C@H](CCCCN)NC(=O)[C@H](CCC(=O)O)NC(=O)[C@H](CCC(N)=O)NC(=O)[C@H](CCCCN)NC(=O)[C@H](CCC(=O)O)NC(=O)[C@@H](NC(=O)[C@H](CCC(=O)O)NC(=O)[C@@H](NC(=O)[C@H](CCSC)NC(=O)[C@H](CCCCN)NC(=O)[C@H](CCCN=C(N)N)NC(=O)[C@H](CC(C)C)NC(=O)[C@H](CC(C)C)NC(=O)[C@@H](NC(=O)[C@H](Cc1ccc(O)cc1)NC(=O)[C@@H]1CCCN1C(=O)[C@H](CC(C)C)NC(=O)[C@H](CC(=O)O)NC(=O)[C@@H](NC(=O)[C@H](CO)NC(=O)[C@@H](NC(=O)[C@@H]1CCCN1C(=O)[C@@H]1CCCN1C(=O)CNC(=O)[C@@H]1CCC(=O)N1)[C@@H](C)CC)[C@@H](C)CC)C(C)C)[C@@H](C)CC)[C@@H](C)CC)[C@@H](C)O)C(=O)O	100	80	20	5	100	–	–	–

Further lines, with some results ahead:

Emax [2] [%]	Emax [3] [%]	Selectivity (Mus musculus [5])	EC50 [7] [nM]	EC50 [8] [nM]	Structure (SMILES)	inhibition in vivo at 0.03 mg/kg/day (Mus musculus [1]) [%]	inhibition in vivo at 0.1 mg/kg/day (Mus musculus [4]) [%]	inhibition in vivo at 0.01 mg/kg/day (Mus musculus [6]) [%]
93	93	83	–	–	CC[C@H](C)[C@H](NC(=O)[C@@H](NC(=O)[C@H](CC(=O)O)NC(=O)[C@H](CC(C)C)NC(=O)[C@H](CC(C)C)NC(=O)[C@H](CC(C)C)NC(=O)[C@H](CCCN=C(N)N)NC(=O)[C@H](CC(N)=O)NC(=O)[C@H](CC(N)=O)NC(=O)[C@H](C)NC(=O)[C@H](C)NC(=O)[C@H](CCC(N)=O)NC(=O)[C@H](CCC(N)=O)NC(=O)[C@H](CCCCN)NC(=O)[C@H](CCC(=O)O)NC(=O)[C@H](CCCCN)NC(=O)[C@H](CCC(=O)O)NC(=O)[C@H](CCC(N)=O)NC(=O)[C@H](CCCCN)NC(=O)[C@H](CCC(=O)O)NC(=O)[C@@H](NC(=O)[C@H](CCC(=O)O)NC(=O)[C@@H](NC(=O)[C@H](CCSC)NC(=O)[C@H](CCCCN)NC(=O)[C@H](CCCN=C(N)N)NC(=O)[C@H](CC(C)C)NC(=O)[C@H](CC(C)C)NC(=O)[C@@H](NC(=O)[C@H](CCC(N)=O)NC(=O)[C@@H]1CCCN1C(=O)[C@H](CC(C)C)NC(=O)[C@H](CC(=O)O)NC(=O)[C@@H](NC(=O)[C@H](CO)NC(=O)[C@@H](NC(=O)[C@@H]1CCCN1C(=O)[C@@H]1CCCN1C(=O)CNC(=O)[C@@H]1CCC(=O)N1)[C@@H](C)CC)[C@@H](C)CC)[C@@H](C)CC)[C@@H](C)CC)[C@@H](C)CC)[C@@H](C)O)C(=O)O	14	73	32
100	83	59	12.8	756	CC[C@H](C)[C@H](NC(=O)[C@@H](NC(=O)[C@H](CC(=O)O)NC(=O)[C@H](CC(C)C)NC(=O)[C@H](CC(C)C)NC(=O)[C@H](CC(C)C)NC(=O)[C@H](CCCN=C(N)N)NC(=O)[C@H](CC(N)=O)NC(=O)[C@H](CC(N)=O)NC(=O)[C@H](C)NC(=O)[C@H](C)NC(=O)[C@H](CCC(N)=O)NC(=O)[C@H](CCC(N)=O)NC(=O)[C@H](CCCCN)NC(=O)[C@H](CCC(=O)O)NC(=O)[C@H](CCCCN)NC(=O)[C@H](CCC(=O)O)NC(=O)[C@H](CCC(N)=O)NC(=O)[C@H](CCCCN)NC(=O)[C@H](CCC(=O)O)NC(=O)[C@@H](NC(=O)[C@H](CCC(=O)O)NC(=O)[C@@H](NC(=O)[C@H](CCSC)NC(=O)[C@H](CCCCN)NC(=O)[C@H](CCCN=C(N)N)NC(=O)[C@H](CC(C)C)NC(=O)[C@H](CC(C)C)NC(=O)[C@H](Cc1ccccc1)NC(=O)[C@@H](NC(=O)[C@@H]1CCCN1C(=O)[C@H](CC(C)C)NC(=O)[C@H](CC(=O)O)NC(=O)[C@@H](NC(=O)[C@H](CO)NC(=O)[C@@H](NC(=O)[C@@H]1CCCN1C(=O)[C@@H]1CCCN1C(=O)CNC(=O)[C@@H]1CCC(=O)N1)[C@@H](C)CC)[C@@H](C)CC)[C@@H](C)CC)[C@@H](C)CC)[C@@H](C)CC)[C@@H](C)O)C(=O)O	–	–	–
78	6	> 41	24.6	> 1000	CC[C@H](C)[C@H](NC(=O)[C@@H](NC(=O)[C@H](CC(=O)O)NC(=O)[C@H](CC(C)C)NC(=O)[C@H](CC(C)C)NC(=O)[C@H](CC(C)C)NC(=O)[C@H](CCCN=C(N)N)NC(=O)[C@H](CC(N)=O)NC(=O)[C@H](CC(N)=O)NC(=O)[C@H](C)NC(=O)[C@H](C)NC(=O)[C@H](CCC(N)=O)NC(=O)[C@H](CCC(N)=O)NC(=O)[C@H](CCCCN)NC(=O)[C@H](CCC(=O)O)NC(=O)[C@H](CCCCN)NC(=O)[C@H](CCC(=O)O)NC(=O)[C@H](CCC(N)=O)NC(=O)[C@H](CCCCN)NC(=O)[C@H](CCC(=O)O)NC(=O)[C@@H](NC(=O)[C@H](CCC(=O)O)NC(=O)[C@@H](NC(=O)[C@H](CCSC)NC(=O)[C@H](CCCCN)NC(=O)[C@H](CCCN=C(N)N)NC(=O)[C@H](CC(C)C)NC(=O)[C@H](CC(C)C)NC(=O)[C@H](CCC(N)=O)NC(=O)[C@@H](NC(=O)[C@@H]1CCCN1C(=O)[C@H](CC(C)C)NC(=O)[C@H](CC(=O)O)NC(=O)[C@@H](NC(=O)[C@H](CO)NC(=O)[C@@H](NC(=O)[C@@H]1CCCN1C(=O)[C@@H]1CCCN1C(=O)CNC(=O)[C@@H]1CCC(=O)N1)[C@@H](C)CC)[C@@H](C)CC)[C@@H](C)CC)[C@@H](C)CC)[C@@H](C)CC)[C@@H](C)O)C(=O)O	–	–	–

Source: ChEMBL document CHEMBL1139487, “Discovery of corticotropin releasing factor 2 receptor selective sauvagine analogues for treatment of skeletal muscle atrophy” (J Med Chem, 2005)
